As a reminder, the inhibition is the relative decrease from the control value, in per cent.

Each structure is given as a SMILES string. Like-named read-outs stand apart in the source and are kept apart here.

The target in the assay is bovine serum albumin (Bos taurus, UniProt P02769). The assay is described as follows: Inhibition of glycation of bovine serum albumin by D-ribose (AGE fluorescence). The assay is classed as biochemical. The following applies: for inhibition at 1 µM / inhibition at 10 µM: read-out: % inhibition (of glycation). As for the experimental part: A solution of bovine serum albumin at 1 mg/ml in solution in phosphate buffered saline (PBS) was incubated at 37° C. for 14 days in the presence or in the absence of D-ribose at the concentration of […], of 3,3′,5,5′-tetrahydroxystilbene or of resveratrol, each at the concentrations of 1 μM and 10 μM.
The glycation was evaluated by measuring the fluorescence of the AGEs at λem.=440 nm emitted by each sample after excitation at λex.=370 nm.
The inhibition of glycation was visualized by the reduction in the fluorescence compared with the sample treated with the sugar alone.

Chain of bovine serum albumin (P02769 25-607): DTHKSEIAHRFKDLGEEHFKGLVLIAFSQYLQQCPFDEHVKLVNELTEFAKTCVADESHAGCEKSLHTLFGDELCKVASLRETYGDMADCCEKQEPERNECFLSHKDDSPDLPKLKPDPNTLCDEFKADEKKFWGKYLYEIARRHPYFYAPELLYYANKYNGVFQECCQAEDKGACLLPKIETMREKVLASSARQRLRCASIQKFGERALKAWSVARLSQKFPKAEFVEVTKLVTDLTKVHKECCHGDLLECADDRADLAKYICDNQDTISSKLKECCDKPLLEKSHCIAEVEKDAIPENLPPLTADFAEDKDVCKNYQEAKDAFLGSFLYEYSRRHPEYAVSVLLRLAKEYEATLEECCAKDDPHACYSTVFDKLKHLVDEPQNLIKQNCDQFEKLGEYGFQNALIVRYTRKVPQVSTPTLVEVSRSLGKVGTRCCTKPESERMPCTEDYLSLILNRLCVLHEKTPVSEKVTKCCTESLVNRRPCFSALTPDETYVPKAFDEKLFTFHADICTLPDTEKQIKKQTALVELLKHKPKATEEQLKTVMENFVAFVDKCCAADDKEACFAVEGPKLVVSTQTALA

With `Oc1ccc(C=Cc2cc(O)cc(O)c2)cc1` [B, resveratrol, reference compound], where the note is “compound 1 μM, BSA 1 mg/ml in PBS, D-ribose 10 μM, 37° C., 14 days, AGE fluorescence λex 370 nm/λem 440 nm vs sugar alone”, the inhibition at 1 µM was 7.1%. For the same compound, the inhibition at 10 µM (compound 10 μM, BSA 1 mg/ml in PBS, D-ribose 10 μM, 37° C., 14 days, AGE fluorescence λex 370 nm/λem 440 nm vs sugar alone) was 7.1%.

As for `Oc1cc(O)cc(/C=C/c2cc(O)cc(O)c2)c1` [A, 3,3′,5,5′-tetrahydroxystilbene], the inhibition at 1 µM was 7.1% and the inhibition at 10 µM came to 14.3%. Also, the “antiglycation effect relative to resveratrol” value (at the concentration of 10 μM) is roughly 2 times. Further, the “antiglycation effect (in words)” value (from the concentration of 1 μM) is “advantageous antiglycation effect”.

Source of the values: patent publication US6414038B2, “Hydroxystilbenes for reducing/inhibiting protein glycation and combating skin aging” (Societe L'Oreal, priority 1999, dated 2002).
